Results as given in PubChem BioAssay (NCI).
Several values for one entry are separate records, joined by “and”; a condition that tells them apart may be missing. Equal values may be shown once.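 In this assay, cells in 96-well plates receive the compound at five concentrations for 48 hours. Endpoints are linearly interpolated between the surrounding concentrations. GI50 is the concentration that inhibits growth by half. Definition used: TGI = concentration required for complete inhibition of growth.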

Legend:
Experiment in all cases: NCI tumour cell line growth inhibition, 48 h
SR leukemia = system: SR leukemia
SF-268 CNS = system: SF-268 CNS
UACC-257 melanoma = system: UACC-257 melanoma
OVCAR-5 ovarian = system: OVCAR-5 ovarian
K-562 leukemia = system: K-562 leukemia
OVCAR-4 ovarian = system: OVCAR-4 ovarian
RXF 393 renal = system: RXF 393 renal
HT29 colon = system: HT29 colon
MDA-MB-435 = system: MDA-MB-435
MCF7 breast = system: MCF7 breast

Compound	GI50 (SR leukemia)	TGI (SR leukemia)	GI50 (SF-268 CNS)	TGI (SF-268 CNS)	GI50 (UACC-257 melanoma)	TGI (UACC-257 melanoma)	GI50 (OVCAR-5 ovarian)	TGI (OVCAR-5 ovarian)	GI50 (K-562 leukemia)	TGI (K-562 leukemia)	GI50 (OVCAR-4 ovarian)	TGI (OVCAR-4 ovarian)	GI50 (RXF 393 renal)	TGI (RXF 393 renal)	GI50 (HT29 colon)	TGI (HT29 colon)	GI50 (MDA-MB-435)	TGI (MDA-MB-435)	GI50 (MCF7 breast)	TGI (MCF7 breast)
CCC[CH2][Sn]([Cl])([Cl])[CH2]CCC	0.296 µM	1.21 µM	0.457 µM	1.77 µM	0.854 µM	2.26 µM	1.51 µM	2.89 µM	0.233 µM	1.24 µM	1.4 µM	2.78 µM	0.232 µM	0.49 µM	1.44 µM	2.81 µM	–	–	–	–
COc1ccc(NC(=O)CC2SC(=Nc3ccccc3C)NC2=O)c([N+](=O)[O-])c1 (stereo unspecified)	–	> 100 µM	–	> 100 µM	–	> 100 µM	–	> 100 µM	–	> 100 µM	–	> 100 µM	–	–	–	> 100 µM	–	–	–	–
CC[C@H](Nc1ncnc2nc[nH]c12)c1nc2cccc(F)c2c(=O)n1-c1ccccc1	–	–	19.2 µM	> 100 µM	18.9 µM	> 100 µM	45 µM	> 100 µM	30.2 µM	> 100 µM	> 100 µM	> 100 µM	1.35 µM	17.4 µM	30 µM	> 100 µM	19.1 µM	> 74.6 µM	8.73 µM	> 100 µM
CCCCCCCCOC(=O)CC[C@@H](C)[C@H]1CC[C@H]2[C@@H]3[C@H](OC(=O)CCN)C[C@@H]4C[C@H](OC(=O)CCN)CC[C@]4(C)[C@H]3C[C@H](OC(=O)CCN)[C@]12C	–	–	3.34 µM	9.12 µM	3.84 µM	16.5 µM	3.24 µM	10.1 µM	–	–	6.31 µM	28.5 µM	9.66 µM	29 µM	2.44 µM	5.79 µM	3.96 µM	18.4 µM	–	–
C=C(CC(NC(=O)c1ccc(C(CC)Cc2cnc3nc(N)nc(N)c3n2)cc1)C(=O)O)C(=O)O (stereo unspecified)	–	> 100 µM	0.0252 µM	> 100 µM	0.0599 µM	> 100 µM	–	–	–	> 100 µM	> 100 µM	> 100 µM	–	> 100 µM	–	> 100 µM	–	–	–	–
CC1=Nc2c(ccc3c2C(=O)c2ccccc2C3=O)NC(c2cccc3c2CCC3)C1 (stereo unspecified)	–	> 100 µM	–	> 100 µM	–	> 100 µM	–	> 100 µM	–	> 100 µM	–	> 100 µM	–	> 100 µM	–	> 100 µM	–	–	–	–
O=c1c2cc(F)ccc2sc2c(N3CCNCC3)nc3ccc(F)cc3c12	–	–	1.57 µM	3.16 µM	1.88 µM	3.7 µM	1.66 µM	3.07 µM	–	–	1.83 µM	3.48 µM	1.33 µM	2.71 µM	1.65 µM	3.22 µM	1.74 µM	3.2 µM	–	–
COC12CCC(=O)C=C1c1ccccc1N2C(C)=O (stereo unspecified)	–	> 100 µM	–	–	–	> 100 µM	–	–	–	> 100 µM	–	> 100 µM	–	> 100 µM	–	> 100 µM	–	–	–	–
CCNC(=O)COc1ccc(Br)cc1Br	–	> 100 µM	–	> 100 µM	–	> 100 µM	–	> 100 µM	–	> 100 µM	–	> 100 µM	–	> 100 µM	–	> 100 µM	–	–	–	–
N#Cc1ccccc1C(Cl)(Cl)c1cnccn1	–	> 100 µM	–	> 100 µM	–	> 100 µM	–	> 100 µM	–	> 100 µM	–	> 100 µM	–	> 100 µM	–	> 100 µM	–	–	–	–
CC(Oc1ccc2c(-c3ccccc3)cc(=O)oc2c1)C(=O)O (stereo unspecified)	–	> 100 µM	–	> 100 µM	–	> 100 µM	–	–	–	> 100 µM	–	> 100 µM	–	> 100 µM	–	> 100 µM	–	–	–	–
O=C(Cc1nc2ccccc2c(=O)n1-c1ccccc1Cl)c1ccncc1	–	–	–	> 100 µM	–	> 100 µM	–	> 100 µM	–	> 100 µM	–	> 100 µM	–	> 100 µM	–	> 100 µM	–	–	–	–
O=C(CCC(=O)Nc1ccc(Cl)c(Cl)c1)CC(=O)c1ccc(Br)cc1	–	–	–	> 100 µM	–	> 100 µM	–	> 100 µM	–	> 100 µM	–	> 100 µM	–	> 100 µM	–	> 100 µM	–	–	–	–
C#Cc1cccc(N2C(=O)c3c(c(-c4ccccc4)c(-c4ccc(Cc5ccc(-c6c(-c7ccccc7)c7c(c(-c8ccccc8)c6-c6ccccc6)C(=O)N(c6cccc(C#C)c6)C7=O)cc5)cc4)c(-c4ccccc4)c3-c3ccccc3)C2=O)c1	–	–	–	> 100 µM	–	> 100 µM	–	> 100 µM	–	> 100 µM	–	> 100 µM	–	> 100 µM	–	> 100 µM	–	–	–	–
CC[n+]1oc(C(=O)c2ccc(Cl)cc2)c(-c2ccccc2)c1-c1ccccc1.[Cl][Fe]([Cl])([Cl])[Cl]	33 µM	> 100 µM	36.1 µM	> 100 µM	–	15.5 µM	82.4 µM	> 100 µM	> 100 µM	> 100 µM	65.7 µM	> 100 µM	–	–	41.8 µM	> 100 µM	22.3 µM	80.5 µM	17.4 µM	65.5 µM
COc1ccc(NC(=O)/C(=C/c2ccccc2)C(C)=O)cc1	–	–	–	34.3 µM	–	29.3 µM	–	34.1 µM	–	> 100 µM	–	24.6 µM	–	–	–	28.5 µM	–	–	–	–
COc1ccc(S(=O)(=O)N2CCN(C(=O)c3ccc(-c4ccccc4)cc3)CC2C(=O)NO)cc1 (stereo unspecified)	–	–	–	–	–	12.5 µM and > 100 µM	–	12.5 µM and > 100 µM	–	–	3.42 µM and 27.1 µM	12.5 µM and > 100 µM	–	–	0.889 µM	12.5 µM	–	–	0.714 µM	3.2 µM
CC1/C=C/[C@@]2(C)CCC(C(C)(C)O)C2C(O)C[C@](C)(O)/C=C/C1 (stereo partly specified)	–	> 100 µM	–	> 100 µM	–	> 100 µM	–	> 100 µM	–	> 100 µM	–	> 100 µM	–	> 100 µM	–	> 100 µM	–	–	–	–
Cc1ccc(NC(=O)CCc2nc(N)nc(N)c2-c2ccccc2)cc1C	–	> 100 µM	–	> 100 µM	–	> 100 µM	–	> 100 µM	–	> 100 µM	–	> 100 µM	–	–	–	> 100 µM	–	–	–	–
CCC1CC2C(=O)N(c3ccccc3)C(=O)C2c2[nH]c3ccccc3c21 (stereo unspecified)	–	> 100 µM	–	80 µM	–	–	–	> 100 µM	–	> 100 µM	–	25.6 µM	–	59.6 µM	–	> 100 µM	–	–	–	–
Cc1nn[n-]n1.N.N.N.N.N.[Cl-].[Co+3]	> 100 µM	> 100 µM	> 100 µM	> 100 µM	> 100 µM	> 100 µM	> 100 µM	> 100 µM	> 100 µM	> 100 µM	> 100 µM	> 100 µM	> 100 µM	> 100 µM	> 100 µM	> 100 µM	–	–	–	–
CCOC(=O)C(=O)Nc1ccccc1C	–	–	–	> 100 µM	–	–	–	> 100 µM	–	> 100 µM	–	> 100 µM	–	> 100 µM	–	–	–	–	–	–
